Measured values reported in patent publication US20250145665A1, “MACROCYCLIC PEPTIDES USEFUL AS MODULATORS OF TNF ALPHA” (Bristol-Myers Squibb Company, priority 2023, published 2025).
Where two headings read alike, the source gives them in different places. Starred links: 1 amine or outer side, 2 acyl side, 3 side chain; linkers in the order of their positions; H or OH if unused. Positions of bridges follow the written chain, without caps; N, C: chain ends. Non-standard residues stand in square brackets, D forms with d. Residues, ends and D or L forms follow the SMILES beside them. *: point of attachment. Bip(4'-NHCO-C6H4-3-CH2COOH) = N[C@@H](Cc1ccc(-c2ccc(NC(=O)c3cccc(CC(=O)O)c3)cc2)cc1)C(=O)O; Bip(4'-NHCO-C6H4-4-CH2COOH) = N[C@@H](Cc1ccc(-c2ccc(NC(=O)c3ccc(CC(=O)O)cc3)cc2)cc1)C(=O)O; X43 = O=C(O)[C@@H]1CCC[C@H](C(=O)Nc2ccc(-c3ccc(C[C@H](N[*:1])C(=O)[*:2])cc3)cc2)C1; X52 = Cc1c(C(=O)O)cccc1C(=O)Nc1ccc(-c2ccc(C[C@H](N[*:1])C(=O)[*:2])cc2)cc1; X77 = Cc1ccc(C(=O)O)cc1C(=O)Nc1ccc(-c2ccc(C[C@H](N[*:1])C(=O)[*:2])cc2)cc1; X5 = Cn1nc(C(=O)Nc2ccc(-c3ccc(C[C@H](N[*:1])C(=O)[*:2])cc3)cc2)c2ccccc21; Bip(4'-NH) = O=C([C@H](Cc1ccc(-c2ccc(N[*:3])cc2)cc1)N[*:1])[*:2]; dArg(ω-Bn(3-CH2OH)) = N=C(NCCC[C@@H](N)C(=O)O)NCc1cccc(CO)c1; Indazole3carbonyl(1-CH2COOH) = O=C(O)Cn1nc(C(=O)*)c2ccccc21; Bip(4'-COOH) = N[C@@H](Cc1ccc(-c2ccc(C(=O)O)cc2)cc1)C(=O)O; Bip(4'-NHAc) = CC(=O)Nc1ccc(-c2ccc(C[C@H](N)C(=O)O)cc2)cc1; X7 = N=C(NCCC[C@@H](N[*:1])C(=O)[*:2])NCc1ccc2occc2c1; Ala(imidazol-2-yl) = N[C@@H](Cc1ncc[nH]1)C(=O)O; Ala(morpholin-4-yl) = N[C@@H](CN1CCOCC1)C(=O)O; Bip = N[C@@H](Cc1ccc(-c2ccccc2)cc1)C(=O)O; Ala(2-furyl) = N[C@@H](Cc1ccco1)C(=O)O; 2Pal = N[C@@H](Cc1ccccn1)C(=O)O; 2Thi = N[C@@H](Cc1cccs1)C(=O)O; Cha = N[C@@H](CC1CCCCC1)C(=O)O; Chg = N[C@H](C(=O)O)C1CCCCC1; Sar = CNCC(=O)O

Target: TNFα (Homo sapiens, UniProt P01375)
Assay: TNF-Induced HEK-Blue Assay
Type: cell-based
[1] = HEK-Blue-CD40L cells, NF-kB-driven secreted alkaline phosphatase reporter, TNFα 0.5 ng/ml, 18 h, read-out: TNF induced HEK-Blue assay IC50 value

Sequence of TNFα (P01375 77-233 limits assumed): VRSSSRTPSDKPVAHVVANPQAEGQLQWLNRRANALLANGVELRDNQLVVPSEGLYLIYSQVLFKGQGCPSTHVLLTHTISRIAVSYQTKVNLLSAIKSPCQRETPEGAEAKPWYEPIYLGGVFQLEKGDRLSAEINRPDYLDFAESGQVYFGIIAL

SMILES | IC50 [1] [nM] | IC50 [nM]
CC[C@H](C)[C@@H]1NC(=O)[C@@H](CCCNC(=N)N)NC(=O)[C@H](CC(=O)O)NC(=O)[C@H](Cc2cnc[nH]2)NC(=O)CN(C)C(=O)[C@H](Cc2ccc(-c3ccc(NC(=O)c4cccc(CC(=O)O)c4)cc3)cc2)NC(=O)[C@H](Cc2ccc(-c3ccccc3)cc2)NC(=O)[C@H](CC2CCCCC2)NC(=O)CSC[C@@H](C(=O)NCC(N)=O)NC(=O)[C@H](CC(C)C)NC(=O)[C@H](Cc2cnc[nH]2)NC(=O)[C@H](C(C)C)NC(=O)[C@@H]2CCCN2C1=O [Example 444] ({CH2CO}-[Cha][Bip][Bip(4'-NHCO-C6H4-3-CH2COOH)][Sar]HD[dR]IPVHLCG-NH2; thioether N-13) | < 50 | 
CC[C@H](C)[C@@H]1NC(=O)[C@@H](CCCNC(=N)N)NC(=O)[C@H](CC(=O)O)NC(=O)[C@H](Cc2cnc[nH]2)NC(=O)CN(C)C(=O)[C@H](Cc2ccc(-c3ccc(NC(=O)c4ccc(CC(=O)O)cc4)cc3)cc2)NC(=O)[C@H](Cc2ccc(-c3ccccc3)cc2)NC(=O)[C@H](CC2CCCCC2)NC(=O)CSC[C@@H](C(=O)NCC(N)=O)NC(=O)[C@H](CC(C)C)NC(=O)[C@H](Cc2cnc[nH]2)NC(=O)[C@H](C(C)C)NC(=O)[C@@H]2CCCN2C1=O [Example 445] ({CH2CO}-[Cha][Bip][Bip(4'-NHCO-C6H4-4-CH2COOH)][Sar]HD[dR]IPVHLCG-NH2; thioether N-13) | < 50 | 
CC[C@H](C)[C@@H]1NC(=O)[C@@H](CCCNC(=N)N)NC(=O)[C@H](CC(=O)O)NC(=O)[C@H](Cc2cnc[nH]2)NC(=O)CN(C)C(=O)[C@H](Cc2ccc(-c3ccc(NC(=O)[C@H]4CCC[C@@H](C(=O)O)C4)cc3)cc2)NC(=O)[C@H](Cc2ccc(-c3ccccc3)cc2)NC(=O)[C@H](CC2CCCCC2)NC(=O)CSC[C@@H](C(=O)NCC(N)=O)NC(=O)[C@H](CC(C)C)NC(=O)[C@H](Cc2cnc[nH]2)NC(=O)[C@H](C(C)C)NC(=O)[C@@H]2CCCN2C1=O [Example 446] ({CH2CO}-[Cha][Bip][X43][Sar]HD[dR]IPVHLCG-NH2; thioether N-13) | 50 to 200 | 
CC[C@H](C)[C@@H]1NC(=O)[C@@H](CCCNC(=N)N)NC(=O)[C@H](CC(=O)O)NC(=O)[C@H](Cc2cnc[nH]2)NC(=O)CN(C)C(=O)[C@H](Cc2ccc(-c3ccc(NC(=O)c4cccc(C(=O)O)c4C)cc3)cc2)NC(=O)[C@H](Cc2ccc(-c3ccccc3)cc2)NC(=O)[C@H](CC2CCCCC2)NC(=O)CSC[C@@H](C(=O)NCC(N)=O)NC(=O)[C@H](CC(C)C)NC(=O)[C@H](Cc2cnc[nH]2)NC(=O)[C@H](C(C)C)NC(=O)[C@@H]2CCCN2C1=O [Example 447] ({CH2CO}-[Cha][Bip][X52][Sar]HD[dR]IPVHLCG-NH2; thioether N-13) | 50 to 200 | 
CC(C)C[C@@H]1NC(=O)[C@H](CCCNC(=N)N)NC(=O)[C@H](C(C)C)NC(=O)[C@@H]2CCCN2C(=O)[C@H](C(C)C)NC(=O)[C@@H](CCCNC(=N)NCc2cccc(CO)c2)NC(=O)[C@H](CC(=O)O)NC(=O)[C@@H]2CCCN2C(=O)CN(C)C(=O)[C@H](Cc2ccc(-c3ccc(NC(=O)c4nn(C)c5ccccc45)cc3)cc2)NC(=O)[C@H](Cc2ccc(-c3ccccc3)cc2)NC(=O)[C@H](CN2CCOCC2)NC(=O)CSC[C@@H](C(=O)NCC(N)=O)NC1=O [Example 448] ({CH2CO}-[Ala(morpholin-4-yl)][Bip][X5][Sar]PD[dArg(ω-Bn(3-CH2OH))]VPVRLCG-NH2; thioether N-13) | < 50 | 
CC(C)C[C@@H]1NC(=O)[C@H](CCCNC(=N)N)NC(=O)[C@H](C(C)C)NC(=O)[C@@H]2CCCN2C(=O)[C@H](C(C)C)NC(=O)[C@@H](CCCNC(=N)NCc2ccc3occc3c2)NC(=O)[C@H](CC(=O)O)NC(=O)[C@@H]2CCCN2C(=O)CN(C)C(=O)[C@H](Cc2ccc(-c3ccc(NC(=O)c4nn(CC(=O)O)c5ccccc45)cc3)cc2)NC(=O)[C@H](Cc2ccc(-c3ccccc3)cc2)NC(=O)[C@H](CN2CCOCC2)NC(=O)CSC[C@@H](C(=O)NCC(N)=O)NC1=O [Example 449] ({CH2CO}-[Ala(morpholin-4-yl)][Bip][Bip(4'-NH)](Indazole3carbonyl(1-CH2COOH))[Sar]PD[X7]VPVRLCG-NH2; thioether N-13) |  | < 50
CC[C@H](C)[C@@H]1NC(=O)[C@@H](CCCNC(=N)N)NC(=O)[C@H](CC(=O)O)NC(=O)[C@H](Cc2cnc[nH]2)NC(=O)CN(C)C(=O)[C@H](Cc2ccc(-c3ccc(NC(=O)c4cc(C(=O)O)ccc4C)cc3)cc2)NC(=O)[C@H](Cc2ccc(-c3ccccc3)cc2)NC(=O)[C@H](CC2CCCCC2)NC(=O)CSC[C@@H](C(=O)NCC(N)=O)NC(=O)[C@H](CC(C)C)NC(=O)[C@H](Cc2cnc[nH]2)NC(=O)[C@H](C(C)C)NC(=O)[C@@H]2CCCN2C1=O [Example 450] ({CH2CO}-[Cha][Bip][X77][Sar]HD[dR]IPVHLCG-NH2; thioether N-13) | < 50 | 
CC(=O)Nc1ccc(-c2ccc(C[C@@H]3NC(=O)[C@H](Cc4ccc(-c5ccccc5)cc4)NC(=O)[C@H](CC4CCCCC4)NC(=O)CSC[C@@H](C(=O)NCC(N)=O)NC(=O)[C@H](CC(C)C)NC(=O)[C@H](Cc4ncc[nH]4)NC(=O)[C@H](C(C)C)NC(=O)[C@@H]4CCCN4C(=O)[C@H](C(C)C)NC(=O)[C@@H](CCCNC(=N)N)NC(=O)[C@H](CC(=O)O)NC(=O)[C@H](Cc4ccco4)NC(=O)CN(C)C3=O)cc2)cc1 [Example 451] ({CH2CO}-[Cha][Bip][Bip(4'-NHAc)][Sar][Ala(2-furyl)]D[dR]VPV[Ala(imidazol-2-yl)]LCG-NH2; thioether N-13) | < 50 | 
CC(=O)Nc1ccc(-c2ccc(C[C@@H]3NC(=O)[C@H](Cc4ccc(-c5ccccc5)cc4)NC(=O)[C@H](CN4CCOCC4)NC(=O)CSC[C@@H](C(=O)NCC(N)=O)NC(=O)[C@H](CC(C)C)NC(=O)[C@H](Cc4cccs4)NC(=O)[C@H](C4CCCCC4)NC(=O)[C@@H]4CCCN4C(=O)[C@H](C(C)C)NC(=O)[C@@H](CCCNC(=N)N)NC(=O)[C@H](CC(=O)O)NC(=O)[C@H](Cc4ccccn4)NC(=O)CN(C)C3=O)cc2)cc1 [Example 452] ({CH2CO}-[Ala(morpholin-4-yl)][Bip][Bip(4'-NHAc)][Sar][2Pal]D[dR]VP[Chg][2Thi]LCG-NH2; thioether N-13) | 50 to 200 | 
CC(=O)Nc1ccc(-c2ccc(C[C@@H]3NC(=O)[C@H](Cc4ccc(-c5ccc(C(=O)O)cc5)cc4)NC(=O)[C@H](CN4CCOCC4)NC(=O)CSC[C@@H](C(=O)NCC(N)=O)NC(=O)[C@H](CC(C)C)NC(=O)[C@H](Cc4cccs4)NC(=O)[C@H](C(C)C)NC(=O)[C@@H]4CCCN4C(=O)[C@H](C(C)C)NC(=O)[C@@H](CCCNC(=N)N)NC(=O)[C@H](CC(=O)O)NC(=O)[C@H](Cc4cnc[nH]4)NC(=O)CN(C)C3=O)cc2)cc1 [Example 453] ({CH2CO}-[Ala(morpholin-4-yl)][Bip(4'-COOH)][Bip(4'-NHAc)][Sar]HD[dR]VPV[2Thi]LCG-NH2; thioether N-13) | < 50 | 
CC(=O)Nc1ccc(-c2ccc(C[C@@H]3NC(=O)[C@H](Cc4ccc(-c5ccccc5)cc4)NC(=O)[C@H](CN4CCOCC4)NC(=O)CSC[C@@H](C(=O)NCC(N)=O)NC(=O)[C@H](CC(C)C)NC(=O)[C@H](Cc4ccccc4)NC(=O)[C@H](C4CCCCC4)NC(=O)[C@@H]4CCCN4C(=O)[C@H](C(C)C)NC(=O)[C@@H](CCCNC(=N)N)NC(=O)[C@H](CC(=O)O)NC(=O)[C@H](Cc4ccccn4)NC(=O)CN(C)C3=O)cc2)cc1 [Example 454] ({CH2CO}-[Ala(morpholin-4-yl)][Bip][Bip(4'-NHAc)][Sar][2Pal]D[dR]VP[Chg]FLCG-NH2; thioether N-13) | < 50 | 
